Source: the NIST ThermoML archive (doi:10.1021/je700339f)

Conditions: Liquid

ClCCCCCCCl [1,6-dichlorohexane]
mass density [kg/m3]
Conditions	308.15 K	318.15 K
100 kPa	1054.6	1045.1
500 kPa	1054.9	1045.3
1000 kPa	1055.2	1045.7
1500 kPa	1055.5	1046.2
2000 kPa	1055.9	1046.6
2500 kPa	1056.3	1046.9
3100 kPa	1056.7	1047.4
3600 kPa	1057.1	1047.8
4100 kPa	1057.4	1048.1
4600 kPa	1057.8	1048.4
5100 kPa	1058.2	1048.9
5600 kPa	1058.5	1049.2
6100 kPa	1058.9	1049.7
6600 kPa	1059.2	1050
7100 kPa	1059.6	1050.4
7600 kPa	1059.8	1050.7
8100 kPa	1060.2	1051.2
8500 kPa	–	1051.4
8600 kPa	1060.6	–
9100 kPa	–	1051.8
9200 kPa	1061	–
9600 kPa	1061.4	1052.2
10100 kPa	1061.7	1052.6
10600 kPa	1062.1	–
10700 kPa	–	1053.1
11100 kPa	1062.4	1053.6
11600 kPa	1062.7	1053.9
12100 kPa	1063.1	1054.1
12600 kPa	1063.5	1054.5
13100 kPa	1063.8	1054.8
13600 kPa	1064.1	1055.3
14100 kPa	1064.5	–
14200 kPa	–	1055.6
14700 kPa	–	1056
14800 kPa	1064.9	–
15100 kPa	1065.1	–
15200 kPa	–	1056.3
15600 kPa	–	1056.6
15700 kPa	1065.5	–
16200 kPa	1065.8	–
16300 kPa	–	1057.1
16700 kPa	1066.2	–
16800 kPa	–	1057.3
17300 kPa	1066.6	1057.7
17800 kPa	1066.9	1058
18300 kPa	1067.2	1058.3
18700 kPa	1067.4	–
18900 kPa	–	1058.8
19200 kPa	1067.8	1059
19700 kPa	1068	1059.3
20200 kPa	–	1059.6
20300 kPa	1068.5	–
